Results taken from patent US6395735B2, “Pharmaceutical compounds” (Eli Lilly and Company, priority 1997, dated 2002).

What was measured:
human m1 receptor = target: T1, human m1 receptor (Homo sapiens, UniProt P11229); test: m1 primary assay: arachidonic acid release in CHO-m1 cells; format: cell-based
T1 construct: expressed in transfected cells; host or cells: CHO (Chinese hamster) cells
T1 sequence (P11229 1-460): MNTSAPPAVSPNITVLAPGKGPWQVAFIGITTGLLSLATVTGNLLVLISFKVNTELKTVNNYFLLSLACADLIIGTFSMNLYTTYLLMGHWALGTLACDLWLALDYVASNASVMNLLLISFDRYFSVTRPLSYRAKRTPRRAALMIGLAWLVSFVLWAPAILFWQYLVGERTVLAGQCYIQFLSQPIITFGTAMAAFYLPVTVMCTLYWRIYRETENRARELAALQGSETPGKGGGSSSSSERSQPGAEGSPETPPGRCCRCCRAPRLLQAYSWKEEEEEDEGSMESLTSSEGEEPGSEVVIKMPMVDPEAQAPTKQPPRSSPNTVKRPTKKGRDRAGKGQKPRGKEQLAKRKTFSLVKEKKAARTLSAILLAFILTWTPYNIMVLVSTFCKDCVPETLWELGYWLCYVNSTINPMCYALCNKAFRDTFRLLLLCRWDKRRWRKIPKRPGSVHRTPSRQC
Procedure: CHO (Chinese hamster transfected with the human m1 receptor (CHO-m1) were grown to confluency in flasks using Dulbecco's Modified Eagle Medium (DMEM) containing 10% fetal bovine serum. Cells were detached with 0.05% trypsin, 0.53 mM EDTA. Cells were collected after centrifugation in a Beckman centrifuge at 1000 rpm for 10 minutes, diluted with culture medium (400,000 cells/ml) Aarachidonic acid was added to the cell solution at a 1:2000 ratio of a 1 mCi/ml stock and cells were plated at 40,000 cells per well into 96 well plates and incubated for 18 to 24 hours at 37 C and 5% CO2. Following the incubation, the medium was removed and the cells were washed with D-ME medium containing 2 mg/mL of fatty acid free BSA (250 L/well). The test compound of interest was diluted in D-ME-BSA and added to each well (150 L/well), incubated for 120 minutes at 37 C in 5% CO2. 80 µL of supernatant was transferred to Wallac 96 well plates containing 110 µL/well of Supermax scintillation cocktail at pH 9.0. Plates were counted in a Wallae microbeta counter.
Representative results from the m1 primary assay are as follows: […]

A9L-m1 = target: T2, A9L-m1 (Homo sapiens, UniProt P11229); test: m1 secondary assay: PI stimulation in A9L-m1; format: cell-based; conditions: for Emax: A9L-m1, relative to carbachol, read-out: Pl stim. A9L-m1 % Max of carbachol; for EC50: A9L-m1, read-out: ED-50 Pl stim A9L-m1, nm
T2 sequence (P11229 1-460): T1 sequence (P11229 1-460)

Max. % activity @ 5 μM (human m1 receptor) [%] | Structure (SMILES) | Emax (A9L-m1) [%] | EC50 (A9L-m1) [nM]
75.9 | O=C(NC1c2cc(/N=C/N3CCCC3)ccc2C[C@H]1O)c1ccc(-c2ccccc2)cc1 (some centres unmarked) [Compound 134] |  | 
92.5 | O=C(N[C@@H]1c2cc(/N=C/N3CCCC3)ccc2C[C@H]1O)c1ccc(-c2ccccc2)cc1 [Compound 120] |  | 
57.4 | CN(C)/C=N/c1ccc2c(c1)[C@@H](NC(=O)c1ccc(Cl)cc1)[C@H](O)C2 [Compound 118] |  | 
80.9 | O=C(NC1c2cc(/N=C/N3CCCC3)ccc2C[C@H]1O)c1ccc(Cl)cc1 (some centres unmarked) [Compound 122] |  | 
114.0 | CN1CCC/C1=N\c1ccc2c(c1)C(NC(=O)c1ccc(-c3ccccc3)cc1)[C@H](O)C2 (some centres unmarked) [Compound 125] |  | 
45.4 | O=C(N[C@@H]1c2cc(/N=C/N3CCCC3)ccc2C[C@H]1O)c1ccc(Cl)c(Cl)c1 [Compound 121] |  | 
66.4 | O=C(N[C@@H]1c2cc(/N=C/N3CCOCC3)ccc2C[C@H]1O)c1ccc(-c2ccccc2)cc1 [Compound 119] |  | 

Further lines, the compound ahead of its results:

Structure (SMILES) | Max. % activity @ 5 μM (human m1 receptor) [%] | Emax (A9L-m1) [%] | EC50 (A9L-m1) [nM]
C/C(=N\c1ccc2c(c1)C(NC(=O)c1cccc(C(F)(F)F)c1)C(O)C2)N(C)C (centres unmarked) [Compound 124] | 82.2 |  | 
O=C(NC1c2cc(/N=C/N3CCCC3)ccc2CC1O)c1cccc(C(F)(F)F)c1 (centres unmarked) [Compound 123] | 76.7 |  | 
C/C(=N\c1ccc2c(c1)C(NC(=O)c1ccc(Cl)c(Cl)c1)C(O)C2)N(C)C (centres unmarked) [Compound 128] |  | 59.2 | 95.3
CN(C)/C=N/c1ccc2c(c1)C(NC(=O)c1cccc(C(F)(F)F)c1)C(O)C2.Cl (centres unmarked) [Compound 126] | 102.2 |  | 
CN(C)/C=N/c1ccc2c(c1)C(NC(=O)c1ccc(Cl)c(Cl)c1)C(O)C2.Cl (centres unmarked) [Compound 127] | 69.8 |  | 
O=C(NC1c2cc(/N=C/N3CCCC3)ccc2C[C@@H]1O)c1ccc(F)c(Cl)c1 (some centres unmarked) [Compound 133] |  | 40 | 190
O=C(NC1c2cc(/N=C/N3CCCC3)ccc2C[C@@H]1O)c1ccc(F)c(Br)c1 (some centres unmarked) [Compound 131] |  | 70.5 | 43.6
